In the test the test system is maize. The test is described as follows: Captan with Elementol R seed treatment, dry maize field trial. Format: in vivo. To be noted: versus untreated seeds. As for the experimental part:
A genetically modified cultivar, supplied by a large seed producing company was used. One bag of treated seed was split and one portion of the seeds in the bag was treated with Captan, while another portion was treated with Captan mixed with Elementol R in the following manner. Captan is a broad-spectrum contact fungicide that has been used on corn seed since the 1950s. It is usually dyed pink and leaves a pink dust in the seed bag and planter box. It is very effective against a broad range of soil fungi. The prescribed amount of Captan was mixed directly with the seeds (Captan reference group). For the test group, seeds were mixed with a similar amount of Captan in 2% Elementol R. The seeds of both groups were briefly mixed or stirred with their individual treatment and then left to dry. Seeds were planted in blocks of 3 or 5 rows stretching the length of the maize field with untreated block s on both sides of each of the treatment groups in the North West Province, South Africa. Culturing was done according to general farming practices with no irrigation.
Plants of each of the untreated, the reference Captan group and the Elementol R/Captan group were collected by pulling up every fifth plant in a row. […]
The total plant mass, the root mass and the leaf mass of each plant were determined. […]

This is an account of results in patent US10321681B2, “Plant support formulation, vehicle for the delivery and translocation of phytologically beneficial substances and compositions containing same” (NORTH-WEST UNIVERSITY, priority 2006, dated 2019).

Regarding `O=C1C2CC=CCC2C(=O)N1SC(Cl)(Cl)Cl` (centres unmarked) [Captan], the root mass result was “only slightly enhanced root mass”. Further, the “leaf mass / growth of the plant leaves” value (fifty plants per group) is listed as “did not result in any change of growth of the plant leaves”.
